“And” between values parts separate entries of the source, which are not always exact repeats. Equal entries are not always repeated.
Test system: T. b. brucei GVR35-Luc2
Assay: T. b. brucei GVR35-Luc2 time-to-kill assay (luciferin)
Format: cell-based
Details: for Luminescence (medium-subtracted), Average: average of replicates; for % Cell viability, individual replicates / % Inhibition, individual replicates / Luminescence (medium-subtracted), individual replicates: replicate wells; for Luminescence, Average / Luminescence, individual replicates: Time to kill assay for GVR35 cells
Description: Enzyme activity was measured using an aldolase/TIM linked assay at 25 °C. […] Experiments were carried out in duplicate. Data are presented as mean values ± standard deviation. […] Source data are provided as a Source Data File. b Kill time of CTCB-405 compared with existing HAT drugs in the clinic. […] Over 99% of trypanosomes were killed in under 30 min compared with much slower killing rates for the other drugs. The points on the graph for CTCB-405 were determined from two independent biological replicate experiments with each time point measured twice (using duplicate technical replicates). The ESD for each point on the graph is between 0.7 and 1.4%. For drugs in clinical use each point on the graph is the average of two technical replicates from one experiment (with a maximum difference of 7.8% for any of the points). Source data are provided as a Source Data File.
As predicted from the biology of the BSF that relies wholly on glycolysis for ATP production, inhibition of the pathway results in a very fast TTK. Two experimental methods were used to measure ATP levels as a real-time indicator of viability. For Tb427 parasites, a Cell Titre Glo kit was used and for the TbGVR35 bioluminescent strain, killing was assessed by adding luciferin which requires ATP to produce a luminescent signal (Supplementary Methods 4.3 and 4.4). […] The BSF of T. brucei cannot produce ATP by oxidative phosphorylation and is solely dependent on flux through the glycolytic pathway. The clear correlation between inhibitor dose and reduction in ATP production, as observed in the TTK assays strongly supports the proposed mode of action of the CTCB compounds is by blocking glycolysis. It is a long-established experimental observation that withdrawal of glucose nutrient leads to rapid loss of motility and cell death. It has recently been shown that the BSF of T. brucei can proliferate on high levels of glycerol; however, we have shown that addition of glycerol to the medium has little effect on parasite killing by the CTCB compounds (Supplementary Table 3).
The killing of T. b. brucei GVR35-Luc2 was assessed by adding D-luciferin to live cells resulting in the production of light in the presence of ATP and luciferase activity. Compounds of interest were serially diluted from 16 µM to 0.5 µM in Modified HMI-9 medium and added into sterile white, flat bottom 96-well plate (Greiner Inc.). 32,000 trypanosomes were added to each well. The plates were incubated at 37 °C and 5% CO2. At the end of each incubation, 200 µg/ml of D-luciferin was added to each well and incubated for 10 min. Luminescence was measured using a BMG plate reader and percentage cell viability versus incubation time was determined.

[1] = 0.5 h, mean, suramin, fexinidazole, SCYX-7158 11 µM, CTCB-405 4 µM
[2] = 1 h, mean, suramin, fexinidazole, SCYX-7158 11 µM, CTCB-405 4 µM
[3] = 8 h, mean, suramin, fexinidazole, SCYX-7158 11 µM, CTCB-405 4 µM
[4] = GVR35 TTK, 24 h incubation, average
[5] = GVR35 TTK, 24 h incubation, from average
[6] = 6 h, mean, suramin, fexinidazole, SCYX-7158 11 µM, CTCB-405 4 µM
[7] = GVR35 TTK, 24 h sheet, summary line marked "4"

In the case of `CSc1ccc(OCc2ncc([N+](=O)[O-])n2C)cc1` [Fexinidazole, fexinidazole], the “TTK (time-to-kill) value” is reported as over 20 h, the “% Cell viability, single replicates” value (0.5 h) is reported as 54% and 59% and the “% Inhibition, single replicates” value (0.5 h) is reported as 46% and 41%. The “% Cell viability” value (0.5 h, average) was 57%, the “% Inhibition” value [1] was 43% and the “% Cell viability, single replicates” value (1 h) was 46% and 57%. The “% Inhibition, single replicates” value (1 h) was 54%, the “% Cell viability” value (1 h, average) was 52% and the “% Inhibition” value [2] was 48%. The “% Cell viability, single replicates” value (2 h) was 61%, the “% Inhibition, single replicates” value (2 h) was 39% and the “% Cell viability” value (2 h, average) was 57%. For the same compound, the “% Cell viability, single replicates” value (4 h) was 58% and 63%, the “% Inhibition, single replicates” value (4 h) was 42% and 37% and the “% Cell viability” value (4 h, average) was 61%. For the same compound, the “% Cell viability, single replicates” value (6 h) was 62% and 60%, the “% Inhibition, single replicates” value (6 h) was 38% and 40% and the “% Cell viability” value (6 h, average) was 61%. The “% Cell viability, single replicates” value (8 h) was 55%, the “% Inhibition, single replicates” value (8 h) was 45% and the “% Cell viability” value (8 h, average) was 55%. The “% Inhibition” value [3] was 45%, the “% Cell viability, Average” value [4] was 18% and the “Luminescence (medium-subtracted), Average” value (GVR35 TTK, 24 h incubation) was 18856.5. For the same compound, the “% Inhibition” value [5] was 83%, the “% Cell viability, individual replicates” value (GVR35 TTK, 24 h incubation) was 16% and 19% and the “% Inhibition, individual replicates” value (GVR35 TTK, 24 h incubation) was 84% and 81%. For the same compound, the “Luminescence (medium-subtracted), individual replicates” value (GVR35 TTK, 24 h incubation) was 18923.5 and 18789.5, the “Luminescence, Average” value (0.5 hour incubation) was 5213 and the “Luminescence, individual replicates” value (0.5 hour incubation) was 5083 and 5343. The “Luminescence, Average” value (1hour incubation) was 6274, the “Luminescence, individual replicates” value (1hour incubation) was 5678 and 6870 and the “Luminescence, Average” value (2hour incubation) was 8146. The “Luminescence, individual replicates” value (2hour incubation) was 8389 and 7903, the “Luminescence, Average” value (4hour incubation) was 11135 and the “Luminescence, individual replicates” value (4hour incubation) was 10890 and 11380. The “Luminescence, Average” value (6hour incubation) was 20713, the “Luminescence, individual replicates” value (6hour incubation) was 21007 and 20418 and the “Luminescence, Average” value (8hour incubation) was 17103. For the same compound, the “Luminescence, individual replicates” value (8hour incubation) was 17279 and 16927, the “Luminescence, Average” value (24hour incubation) was 18857 and the “Luminescence, individual replicates” value (24hour incubation) was 18924 and 18790.
For `Cc1ccc(C(=O)Nc2ccc(S(=O)(=O)O)c3cc(S(=O)(=O)O)cc(S(=O)(=O)O)c23)cc1NC(=O)c1cccc(NC(=O)Nc2cccc(C(=O)Nc3cc(C(=O)Nc4ccc(S(=O)(=O)O)c5cc(S(=O)(=O)O)cc(S(=O)(=O)O)c45)ccc3C)c2)c1` [Suramin, suramin], the “TTK (time-to-kill) value” was over 20 h, the “% Cell viability, single replicates” value (0.5 h) was 91% and 97% and the “% Inhibition, single replicates” value (0.5 h) was 9% and 2.59%. The “% Cell viability” value (0.5 h, average) was 94%, the “% Inhibition” value [1] was 6% and the “% Cell viability, single replicates” value (1 h) was 87% and 92%. The “% Inhibition, single replicates” value (1 h) was 13% and 7.55%, the “% Cell viability” value (1 h, average) was 90% and the “% Inhibition” value [2] was 10%. The “% Cell viability, single replicates” value (2 h) was 95% and 89%, the “% Inhibition, single replicates” value (2 h) was 4.69% and 11% and the “% Cell viability” value (2 h, average) was 92%. For the same compound, the “% Inhibition” value (2 h, mean, suramin, fexinidazole, SCYX-7158 11 µM, CTCB-405 4 µM) was 8%, the “% Cell viability, single replicates” value (4 h) was 86% and the “% Inhibition, single replicates” value (4 h) was 14% and 8.56%. For the same compound, the “% Cell viability” value (4 h, average) was 89%, the “% Cell viability, single replicates” value (6 h) was 80% and 82% and the “% Inhibition, single replicates” value (6 h) was 20% and 18%. The “% Cell viability” value (6 h, average) was 81%, the “% Inhibition” value [6] was 19% and the “% Cell viability, single replicates” value (8 h) was 62% and 63%. For the same compound, the “% Inhibition, single replicates” value (8 h) was 38% and 37%, the “% Cell viability” value (8 h, average) was 62% and the “% Inhibition” value [3] was 38%. The “% Cell viability, Average” value [4] was 1.08%, the “Luminescence (medium-subtracted), Average” value (GVR35 TTK, 24 h incubation) was 1271 and the “% Inhibition” value [5] was 99%. The “% Cell viability, individual replicates” value (GVR35 TTK, 24 h incubation) was 1.06% and 1.11%, the “% Inhibition, individual replicates” value (GVR35 TTK, 24 h incubation) was 99% and the “Luminescence (medium-subtracted), individual replicates” value (GVR35 TTK, 24 h incubation) was 1370.5 and 1171.5. For the same compound, the “% Cell viability” value [7] was 1.08%, the “Luminescence, Average” value (0.5 hour incubation) was 8640 and the “Luminescence, individual replicates” value (0.5 hour incubation) was 8520 and 8761. For the same compound, the “Luminescence, Average” value (1hour incubation) was 10793, the “Luminescence, individual replicates” value (1hour incubation) was 10604 and 10981 and the “Luminescence, Average” value (2hour incubation) was 13042. For the same compound, the “Luminescence, individual replicates” value (2hour incubation) was 13027 and 13057, the “Luminescence, Average” value (4hour incubation) was 16276 and the “Luminescence, individual replicates” value (4hour incubation) was 16058 and 16495. The “Luminescence, Average” value (6hour incubation) was 27456, the “Luminescence, individual replicates” value (6hour incubation) was 27109 and 27803 and the “Luminescence, Average” value (8hour incubation) was 19408. For the same compound, the “Luminescence, individual replicates” value (8hour incubation) was 19222 and 19594, the “Luminescence, Average” value (24hour incubation) was 1271 and the “Luminescence, individual replicates” value (24hour incubation) was 1371 and 1172.
With `CC1(C)OB(O)c2cc(NC(=O)c3ccc(F)cc3C(F)(F)F)ccc21` [SCYX-7158] the “% Cell viability, single replicates” value (0.5 h) was 82% and 93%, the “% Inhibition, single replicates” value (0.5 h) was 18% and 6.51% and the “% Cell viability” value (0.5 h, average) was 88%. For the same compound, the “% Inhibition” value [1] was 12%, the “% Cell viability, single replicates” value (1 h) was 78% and the “% Inhibition, single replicates” value (1 h) was 22%. For the same compound, the “% Cell viability” value (1 h, average) was 80%, the “% Inhibition” value [2] was 20% and the “% Cell viability, single replicates” value (2 h) was 84% and 77%. The “% Inhibition, single replicates” value (2 h) was 16% and 23%, the “% Cell viability” value (2 h, average) was 80% and the “% Cell viability, single replicates” value (4 h) was 53% and 55%. The “% Inhibition, single replicates” value (4 h) was 47% and 45%, the “% Cell viability” value (4 h, average) was 54% and the “% Inhibition” value (4 h, mean, suramin, fexinidazole, SCYX-7158 11 µM, CTCB-405 4 µM) was 46%. For the same compound, the “% Cell viability, single replicates” value (6 h) was 30% and 31%, the “% Inhibition, single replicates” value (6 h) was 70% and 69% and the “% Cell viability” value (6 h, average) was 31%. The “% Inhibition” value [6] was 69%, the “% Cell viability, single replicates” value (8 h) was 16% and 15% and the “% Inhibition, single replicates” value (8 h) was 84% and 85%. The “% Cell viability” value (8 h, average) was 16%, the “% Inhibition” value [3] was 84% and the “% Cell viability, Average” value [4] was -0.0868%. The “Luminescence (medium-subtracted), Average” value (GVR35 TTK, 24 h incubation) was 8.5, the “% Inhibition” value [5] was 100% and the “% Cell viability, individual replicates” value (GVR35 TTK, 24 h incubation) was -0.0698% and -0.104%. For the same compound, the “% Inhibition, individual replicates” value (GVR35 TTK, 24 h incubation) was 100%, the “Luminescence (medium-subtracted), individual replicates” value (GVR35 TTK, 24 h incubation) was 16.5 and 0.5 and the “% Cell viability” value [7] was -0.085%. For the same compound, the “Luminescence, Average” value (0.5 hour incubation) was 8054, the “Luminescence, individual replicates” value (0.5 hour incubation) was 7697 and 8411 and the “Luminescence, Average” value (1hour incubation) was 9657. For the same compound, the “Luminescence, individual replicates” value (1hour incubation) was 9531 and 9783, the “Luminescence, Average” value (2hour incubation) was 11337 and the “Luminescence, individual replicates” value (2hour incubation) was 11424 and 11249. The “Luminescence, Average” value (4hour incubation) was 9915, the “Luminescence, individual replicates” value (4hour incubation) was 9827 and 10004 and the “Luminescence, Average” value (6hour incubation) was 10493. For the same compound, the “Luminescence, individual replicates” value (6hour incubation) was 10240 and 10745, the “Luminescence, Average” value (8hour incubation) was 4975 and the “Luminescence, individual replicates” value (8hour incubation) was 5108 and 4842. The “Luminescence, Average” value (24hour incubation) was 8.5 and the “Luminescence, individual replicates” value (24hour incubation) was 17 and 0.5.
